Tests used:
[1] = tested on: CCD-966SK; assay: MTT cell proliferation assay, CCD-966SK; details: CCD966SK skin fibroblast; 10 µM; 72 h MTT
[2] = biological target: T1, PDE5A (Homo sapiens, UniProt O76074); assay: Phosphodiesterase 5 HTRF cGMP assay; format: biochemical; details: for IC50: means ± S.D. (n = 4), read-out: PDE5 IC50; for inhibition at 10 µM: read-out: PDE5 % Inhibition at 10 μM
T1 construct: purchased BPS Bioscience, San Diego, CA, USA
Method: All the synthesized acridine derivatives were tested for their in vitro ability to inhibit PDE5A at a screening dose of 10 µM.
The enzyme activities of phosphodiesterase 5 (PDE5) were measured using an HTRF cGMP assay kit (Cisbio, Codolet, France). […] Afterward, the HTRF reagent (cGMP-d2 and anti-cGMP-cryptate) was added for 1 h at 25 °C, and PDE activity was assayed on an HTRF reader (Tecan Infinite F200 Pro).

[3] = tested on: SNB-75; assay: NCI-60 one-dose screen; format: cell-based; details: Homo sapiens; SNB-75, CNS Cancer panel; single dose 10^−5 M; read-out: Growth inhibition %
Method: (§1) The newly synthesized compounds were screened for their in vitro anticancer activity at the Developmental Therapeutic Program (DTP) of the National Cancer Institute (NCI). The screening involved a panel of 60 human tumor cell lines consisting of 9 tissue types to screen for potential anti-cancer agents. The primary screening of submitted compounds was performed by testing a single dose (10^−5 M) in the full NCI-60 panel. The detailed % inhibition by the tested compounds against the 60 cell lines is shown in Tables S1–S3 in the Supporting Information.

[4] = tested on: SK-MEL-5; assay: NCI-60 one-dose screen; format: cell-based; details: Homo sapiens; SK-MEL-5, Melanoma panel; single dose 10^−5 M; read-out: Growth inhibition %
Method: as §1

[5] = tested on: MOLT-4; assay: NCI-60 one-dose screen; format: cell-based; details: Homo sapiens; MOLT-4, Leukemia panel; single dose 10^−5 M; read-out: Growth inhibition %
Method: as §1

[6] = tested on: HCT-15; assay: NCI-60 one-dose screen; format: cell-based; details: Homo sapiens; HCT-15, Colon Cancer panel; single dose 10^−5 M; read-out: Growth inhibition %
Method: as §1

[7] = tested on: ACHN; assay: NCI-60 one-dose screen; format: cell-based; details: Homo sapiens, Renal Cancer panel, single dose 10^−5 M, read-out: Growth inhibition %
Method: as §1

[8] = tested on: OVCAR-3; assay: NCI-60 one-dose screen; format: cell-based; details: Homo sapiens; OVCAR-3, Ovarian Cancer panel; single dose 10^−5 M; read-out: Growth inhibition %
Method: as §1

[9] = tested on: K-562; assay: NCI-60 one-dose screen; format: cell-based; details: Homo sapiens, K562; K-562, Leukemia panel; single dose 10^−5 M; read-out: Growth inhibition %
Method: as §1

[10] = tested on: NCI-H226; assay: NCI-60 one-dose screen; format: cell-based; details: Homo sapiens; NCI-H226, Non-small cell lung panel; single dose 10^−5 M; read-out: Growth inhibition %
Method: as §1

[11] = tested on: HL-60(TB); assay: NCI-60 one-dose screen; format: cell-based; details: Homo sapiens, Leukemia panel, single dose 10^−5 M, read-out: Growth inhibition %
Method: as §1

[12] = tested on: SW-620; assay: NCI-60 one-dose screen; format: cell-based; details: Homo sapiens; SW-620, Colon Cancer panel; single dose 10^−5 M; read-out: Growth inhibition %
Method: as §1

[13] = tested on: MDA-MB-231/ATCC; assay: NCI-60 one-dose screen; format: cell-based; details: Homo sapiens, Breast Cancer panel, single dose 10^−5 M, read-out: Growth inhibition %
Method: as §1

[14] = tested on: KM12; assay: NCI-60 one-dose screen; format: cell-based; details: Homo sapiens; KM12, Colon Cancer panel; single dose 10^−5 M; read-out: Growth inhibition %
Method: as §1

[15] = tested on: SK-MEL-28; assay: NCI-60 one-dose screen; format: cell-based; details: Homo sapiens; SK-MEL-28, Melanoma panel; single dose 10^−5 M; read-out: Growth inhibition %
Method: as §1

[16] = tested on: HT29; assay: NCI-60 one-dose screen; format: cell-based; details: Homo sapiens, HT-29; HT29, Colon Cancer panel; single dose 10^−5 M; read-out: Growth inhibition %
Method: as §1

[17] = tested on: OVCAR-8; assay: NCI-60 one-dose screen; format: cell-based; details: Homo sapiens; OVCAR-8, Ovarian Cancer panel; single dose 10^−5 M; read-out: Growth inhibition %
Method: as §1

[18] = tested on: SR; assay: NCI-60 one-dose screen; format: cell-based; details: Homo sapiens, Leukemia panel, single dose 10^−5 M, read-out: Growth inhibition %
Method: as §1

[19] = tested on: CAKI-1; assay: NCI-60 one-dose screen; format: cell-based; details: Homo sapiens; CAKI-1, Renal Cancer panel; single dose 10^−5 M; read-out: Growth inhibition %
Method: as §1

[20] = tested on: 786-0; assay: NCI-60 one-dose screen; format: cell-based; details: Homo sapiens; 786-0, Renal Cancer panel; single dose 10^−5 M; read-out: Growth inhibition %
Method: as §1

[21] = tested on: EKVX; assay: NCI-60 one-dose screen; format: cell-based; details: Homo sapiens, Non-small cell lung panel, single dose 10^−5 M, read-out: Growth inhibition %
Method: as §1

[22] = tested on: MDA-MB-435; assay: NCI-60 one-dose screen; format: cell-based; details: Homo sapiens; MDA-MB-435, Melanoma panel; single dose 10^−5 M; read-out: Growth inhibition %
Method: as §1

[23] = tested on: BT-549; assay: NCI-60 one-dose screen; format: cell-based; details: Homo sapiens; BT-549, Breast Cancer panel; single dose 10^−5 M; read-out: Growth inhibition %
Method: as §1

[24] = tested on: DU-145; assay: NCI-60 one-dose screen; format: cell-based; details: Homo sapiens; DU-145, Prostate Cancer panel; single dose 10^−5 M; read-out: Growth inhibition %
Method: as §1

[25] = tested on: HS 578T; assay: NCI-60 one-dose screen; format: cell-based; details: Homo sapiens, Breast Cancer panel, single dose 10^−5 M, read-out: Growth inhibition %
Method: as §1

[26] = tested on: COLO 205; assay: NCI-60 one-dose screen; format: cell-based; details: Homo sapiens; COLO 205, Colon Cancer panel; single dose 10^−5 M; read-out: Growth inhibition %
Method: as §1

[27] = tested on: UO-31; assay: NCI-60 one-dose screen; format: cell-based; details: Homo sapiens; UO-31, Renal Cancer panel; single dose 10^−5 M; read-out: Growth inhibition %
Method: as §1

[28] = tested on: SF-268; assay: NCI-60 one-dose screen; format: cell-based; details: Homo sapiens; SF-268, CNS Cancer panel; single dose 10^−5 M; read-out: Growth inhibition %

COc1cccc(CNc2c3ccccc3nc3ccccc23)c1 [Compound 6, Acridin-9-yl-(3-methoxybenzyl)-amine]
% Inhibition at 10 µM [1]: 54.31 ± 0.98%
IC50 [2]: > 10 µM
inhibition at 10 µM [2]: 39.7 ± 3.2%
inhibition at 10 µM [3]: 43.1%
inhibition at 10 µM [4]: 42.4%
inhibition at 10 µM [5]: 93.6%
inhibition at 10 µM [6]: 75.6%
inhibition at 10 µM [7]: 80.8%
inhibition at 10 µM [8]: 45.2%
inhibition at 10 µM [9]: 93.4%
inhibition at 10 µM [10]: 51.9%
inhibition at 10 µM [11]: 59.1%
inhibition at 10 µM [12]: 74.5%
inhibition at 10 µM [13]: 50.1%
inhibition at 10 µM [14]: 64.1%
inhibition at 10 µM [15]: 18.8%
inhibition at 10 µM [16]: 81.3%
inhibition at 10 µM [17]: 68.1%
inhibition at 10 µM [18]: 91.6%
inhibition at 10 µM [19]: 64.3%
inhibition at 10 µM [20]: 62.7%
inhibition at 10 µM [21]: 48.2%
inhibition at 10 µM [22]: 57%
inhibition at 10 µM [23]: 31.3%
inhibition at 10 µM [24]: 46.7%
inhibition at 10 µM [25]: 44.4%
inhibition at 10 µM [26]: 90.4%
inhibition at 10 µM [27]: 73%
inhibition at 10 µM [28]: 28.8%

COc1ccc(CNc2c3ccccc3nc3ccccc23)cc1 [Compound 7, Acridin-9-yl-(4-methoxybenzyl)-amine]
% Inhibition at 10 µM [1]: 13.09 ± 2.52%
IC50 [2]: > 10 µM
inhibition at 10 µM [2]: < 0%
inhibition at 10 µM [3]: 38.2%
inhibition at 10 µM [4]: 37.8%
inhibition at 10 µM [5]: 90.6%
inhibition at 10 µM [6]: 78%
inhibition at 10 µM [7]: 81.2%
inhibition at 10 µM [8]: 51.9%
inhibition at 10 µM [9]: 93%
inhibition at 10 µM [10]: 48.6%
inhibition at 10 µM [11]: 57%
inhibition at 10 µM [12]: 74.4%
inhibition at 10 µM [13]: 52.6%
inhibition at 10 µM [14]: 66.8%
inhibition at 10 µM [15]: 20.4%
inhibition at 10 µM [16]: 80.7%
inhibition at 10 µM [17]: 72.3%
inhibition at 10 µM [18]: 93%
inhibition at 10 µM [19]: 70.7%
inhibition at 10 µM [20]: 67.6%
inhibition at 10 µM [21]: 50.3%
inhibition at 10 µM [22]: 59.8%
inhibition at 10 µM [23]: 19.9%
inhibition at 10 µM [24]: 52%
inhibition at 10 µM [25]: 42%
inhibition at 10 µM [26]: 88.4%
inhibition at 10 µM [27]: 77.9%
inhibition at 10 µM [28]: 36.6%

COc1ccc(CNc2c3ccccc3nc3ccccc23)c(OC)c1 [Compound 17, Acridin-9-yl-(2,4-dimethoxybenzyl)-amine]
% Inhibition at 10 µM [1]: 35.11 ± 0.42%
IC50 [2]: 6.77 ± 1.31 µM
inhibition at 10 µM [2]: 60.2 ± 5.89%
inhibition at 10 µM [3]: 35.5%
inhibition at 10 µM [4]: 29.6%
inhibition at 10 µM [5]: 81.5%
inhibition at 10 µM [6]: 74%
inhibition at 10 µM [7]: 74.2%
inhibition at 10 µM [8]: 30.8%
inhibition at 10 µM [9]: 86.8%
inhibition at 10 µM [10]: 53.7%
inhibition at 10 µM [11]: 63.1%
inhibition at 10 µM [12]: 79.3%
inhibition at 10 µM [13]: 56.4%
inhibition at 10 µM [14]: 45.7%
inhibition at 10 µM [15]: 30.7%
inhibition at 10 µM [16]: 86.2%
inhibition at 10 µM [17]: 62.2%
inhibition at 10 µM [18]: 81.9%
inhibition at 10 µM [19]: 63.8%
inhibition at 10 µM [20]: 60.9%
inhibition at 10 µM [21]: 48.9%
inhibition at 10 µM [22]: 61.3%
inhibition at 10 µM [23]: 33.3%
inhibition at 10 µM [24]: 50.6%
inhibition at 10 µM [25]: 31.1%
inhibition at 10 µM [26]: 75.4%
inhibition at 10 µM [27]: 72%
inhibition at 10 µM [28]: 34.3%

COc1ccc(CNc2c3ccccc3nc3ccccc23)cc1OC [Compound 18, Acridin-9-yl-(3,4-dimethoxybenzyl)-amine]
% Inhibition at 10 µM [1]: 32.27 ± 0.58%
IC50 [2]: 9.77 ± 3.11 µM
inhibition at 10 µM [2]: 51.2 ± 5.26%
inhibition at 10 µM [3]: 75.2%
inhibition at 10 µM [4]: 82.5%
inhibition at 10 µM [5]: 89.4%
inhibition at 10 µM [6]: 89.8%
inhibition at 10 µM [7]: 95.9%
inhibition at 10 µM [8]: 56.3%
inhibition at 10 µM [9]: 91.2%
inhibition at 10 µM [10]: 72%
inhibition at 10 µM [11]: 87.3%
inhibition at 10 µM [12]: 84%
inhibition at 10 µM [13]: 80.6%
inhibition at 10 µM [14]: 68.4%
inhibition at 10 µM [15]: 64.8%
inhibition at 10 µM [16]: 95.6%
inhibition at 10 µM [17]: 76.2%
inhibition at 10 µM [18]: 91.4%
inhibition at 10 µM [19]: 89.5%
inhibition at 10 µM [20]: 74.6%
inhibition at 10 µM [21]: 84.8%
inhibition at 10 µM [22]: 70.6%
inhibition at 10 µM [23]: 57.9%
inhibition at 10 µM [24]: 75.3%
inhibition at 10 µM [25]: 62.8%
inhibition at 10 µM [26]: 94.7%
inhibition at 10 µM [27]: 87.9%
inhibition at 10 µM [28]: 60.4%

Reference: publication PMC9866191, “Novel 9-Benzylaminoacridine Derivatives as Dual Inhibitors of Phosphodiesterase 5 and Topoisomerase II for the Treatment of Colon Cancer” (Molecules, 2023)
